The source of these data is US20120172359A1 (NOVARTIS AG, priority 2010, published 2012).

Counter-ions that a name gives are not always drawn.

Chain of Human BACE-1 (P56817 46-457 limits assumed): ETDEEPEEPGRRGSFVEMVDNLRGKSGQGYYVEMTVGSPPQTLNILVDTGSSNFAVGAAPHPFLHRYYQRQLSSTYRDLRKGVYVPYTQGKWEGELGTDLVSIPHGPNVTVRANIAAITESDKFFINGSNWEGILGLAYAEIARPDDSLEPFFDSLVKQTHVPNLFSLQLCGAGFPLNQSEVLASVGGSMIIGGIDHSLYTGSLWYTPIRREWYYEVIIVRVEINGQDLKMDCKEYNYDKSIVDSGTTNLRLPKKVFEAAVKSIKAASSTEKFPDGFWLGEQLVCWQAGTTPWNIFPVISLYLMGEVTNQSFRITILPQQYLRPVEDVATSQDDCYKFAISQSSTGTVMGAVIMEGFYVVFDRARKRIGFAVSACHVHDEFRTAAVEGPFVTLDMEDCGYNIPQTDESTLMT

This assay concerns the target Human BACE-1 (Homo sapiens, UniProt P56817). Nature of the assay: Test 1: Inhibition of Human BACE-1. Type of assay: biochemical. Particulars: Test 1; recombinant BACE-1 (extracellular domain), acetate buffer pH 4.5, 1 hour with test compound at room temperature, fluorescence-quenched peptide substrate; read-out: Bace IC50.
For the compound `COc1ccc(C(=O)Nc2ccc(F)c([C@]3(C(F)F)COCC(N)=N3)c2)nc1` [Example 49, 5-Methoxy-pyridine-2-carboxylic acid [3-((R)-5-amino-3-difluoromethyl-3,6-dihydro-2H-[1,4]oxazin-3-yl)-4-fluoro-phenyl]-amide], the concentration for half-maximal inhibition (IC50) (in general, the concentration at which inhibition is half-maximal) amounted to 50 nM.
Next, `Cc1nc(C(=O)Nc2ccc(F)c([C@]3(C(F)F)COCC(N)=N3)c2)c(N)o1` [Example 168, 5-Amino-2-methyl-oxazole-4-carboxylic acid [3-((R)-5-amino-3-difluoromethyl-3,6-dihydro-2H-[1,4]oxazin-3-yl)-4-fluoro-phenyl]-amide]: 260 nM.
The value for `Cc1nc(C(=O)Nc2cccc(C3(C)COCC(N)=N3)c2)cs1` (stereo not drawn) [Example 11, 2-Methyl-thiazole-4-carboxylic acid [3-(5-amino-3-methyl-3,6-dihydro-2H-[1,4]oxazin-3-yl)-phenyl]-amide] was 3800 nM; that for `NC1=N[C@@](c2cc(NC(=O)c3ncc(OCF)cc3Cl)ccc2F)(C(F)F)COC1` [Example 184, 3-Chloro-5-fluoromethoxy-pyridine-2-carboxylic acid [3-((R)-5-amino-3-difluoromethyl-3,6-dihydro-2H-[1,4]oxazin-3-yl)-4-fluoro-phenyl]amide] was 59 nM.
The value for `NC1=N[C@@](c2cc(NC(=O)c3ncc(Cl)cc3Cl)ccc2F)(C(F)F)COC1` [Example 111, 3,5-Dichloro-pyridine-2-carboxylic acid [3-((R)-5-amino-3-difluoromethyl-3,6-dihydro-2H-[1,4]oxazin-3-yl)-4-fluoro-phenyl]-amide hydrochloride] was 25 nM; that for `Cc1nc(C(=O)Nc2ccc(F)c([C@]3(C(F)F)COCC(N)=N3)c2)co1` [Example 127, 2-Methyl-oxazole-4-carboxylic acid [3-((R)-5-amino-3-difluoromethyl-3,6-dihydro-2H-[1,4]oxazin-3-yl)-4-fluoro-phenyl]-amide hydrochloride] was 98 nM; that for `CCc1nc(C(=O)Nc2ccc(F)c([C@]3(C(F)F)COCC(N)=N3)c2)co1` [Example 131, 2-Ethyl-oxazole-4-carboxylic acid [3-((R)-5-amino-3-difluoromethyl-3,6-dihydro-2H-[1,4]oxazin-3-yl)-4-fluoro-phenyl]-amide hydrochloride] was 330 nM.
On to `COc1cc(Br)cnc1C(=O)Nc1cc(C2(C(F)F)COCC(N)=N2)c(F)cc1F` (stereo not drawn) [Example 83, 5-Bromo-3-methoxy-pyridine-2-carboxylic acid [5-(5-amino-3-difluoromethyl-3,6-dihydro-2H-[1,4]oxazin-3-yl)-2,4-difluoro-phenyl]-amide hydrochloride], for which the IC50 stood at 2900 nM.
The value for `COCCOc1cnc(C(=O)Nc2ccc(F)c([C@]3(C(F)F)COCC(N)=N3)c2)c(C)n1` [Example 178, 5-(2-Methoxy-ethoxy)-3-methyl-pyrazine-2-carboxylic acid [3-((R)-5-amino-3-difluoromethyl-3,6-dihydro-2H-[1,4]oxazin-3-yl)-4-fluoro-phenyl]-amide] was 170 nM; that for `C[C@@]1(c2cc(Br)cc(NC(=O)c3ncc(Br)cn3)c2)COCC(N)=N1` [Example 51, 5-Bromo-pyrimidine-2-carboxylic acid [3-((R)-5-amino-3-methyl-3,6-dihydro-2H-[1,4]oxazin-3-yl)-5-bromo-phenyl]-amide hydrochloride] was 230 nM.
Next, `Cc1cc(OC(F)F)cnc1C(=O)Nc1ccc(F)c([C@]2(C(F)F)COCC(N)=N2)c1` [Example 176, 5-Difluoromethoxy-3-methyl-pyridine-2-carboxylic acid [3-((R)-5-amino-3-difluoromethyl-3,6-dihydro-2H-[1,4]oxazin-3-yl)-4-fluoro-phenyl]amide]: 18 nM.
The value for `NC1=NC(c2cccc(NC(=O)c3cnc(C(F)F)cn3)c2)(C(F)F)COC1` (stereo not drawn) [Example 110, 5-Difluoromethyl-pyrazine-2-carboxylic acid [3-(5-amino-3-difluoromethyl-3,6-dihydro-2H-[1,4]oxazin-3-yl)-phenyl]-amide hydrochloride] was 1900 nM; that for `Cc1cc(OCF)cnc1C(=O)Nc1ccc(F)c([C@]2(C(F)F)COCC(N)=N2)c1` [Example 177, 5-Fluoromethoxy-3-methyl-pyridine-2-carboxylic acid [3-((R)-5-amino-3-difluoromethyl-3,6-dihydro-2H-[1,4]oxazin-3-yl)-4-fluoro-phenyl]-amide] was 29 nM; that for `Cc1nc(C(=O)Nc2cccc(C3(C)COCC(N)=N3)c2)co1` (stereo not drawn) [Example 5, 2-Methyl-oxazole-4-carboxylic acid [3-(5-amino-3-methyl-3,6-dihydro-2H-[1,4]oxazin-3-yl)-phenyl]-amide] was 640 nM.
In the case of `NC1=N[C@@](c2cc(NC(=O)c3ccc(O)nn3)ccc2F)(C(F)F)COC1` [Example 134, 6-Hydroxy-pyridazine-3-carboxylic acid [3-((R)-5-amino-3-difluoromethyl-3,6-dihydro-2H-[1,4]oxazin-3-yl)-4-fluoro-phenyl]-amide hydrochloride], the concentration for half-maximal inhibition (IC50) came to 260 nM.
Next, `N#Cc1ccc(C(=O)Nc2ccc(F)c(C3(C(F)(F)F)CCOCC(N)=N3)c2)nc1` (stereo not drawn) [Example 98, 5-Cyano-pyridine-2-carboxylic acid [3-(3-amino-5-trifluoromethyl-2,5,6,7-tetrahydro-[1,4]oxazepin-5-yl)-4-fluoro-phenyl]-amide hydrochloride]: 240 nM; `NC1=N[C@@](c2cc(NC(=O)c3ncc(C(F)(F)F)cc3Cl)ccc2F)(C(F)F)COC1` [Example 46, 3-Chloro-5-trifluoromethyl-pyridine-2-carboxylic acid [3-((R)-5-amino-3-difluoromethyl-3,6-dihydro-2H-[1,4]oxazin-3-yl)-4-fluoro-phenyl]-amide]: 71 nM.
The value for `CC1(c2cccc(NC(=O)c3ccc(C#N)cn3)c2)COCC(N)=N1` (stereo not drawn) [Example 14, 5-Cyano-pyridine-2-carboxylic acid [3-(5-amino-3-methyl-3,6-dihydro-2H-[1,4]oxazin-3-yl)-phenyl]-amide] was 160 nM.
Next, `NC1=N[C@@](c2cc(NC(=O)c3ncc(Cl)cc3N)ccc2F)(C(F)F)COC1` [Example 160, 3-Amino-5-chloro-pyridine-2-carboxylic acid [3-((R)-5-amino-3-difluoromethyl-3,6-dihydro-2H-[1,4]oxazin-3-yl)-4-fluoro-phenyl]-amide]: 12 nM; `N#Cc1ccc(C(=O)Nc2cc(C3(C(F)F)COCC(N)=N3)c(F)cc2F)nc1` (stereo not drawn) [Example 82, 5-Cyano-pyridine-2-carboxylic acid [5-(5-amino-3-difluoromethyl-3,6-dihydro-2H-[1,4]oxazin-3-yl)-2,4-difluoro-phenyl]-amide hydrochloride]: 3000 nM; `COc1cnc(C(=O)Nc2ccc(F)c([C@]3(C(F)F)COCC(N)=N3)c2)c(C)n1` [Example 174, 5-Methoxy-3-methyl-pyrazine-2-carboxylic acid [3-((R)-5-amino-3-difluoromethyl-3,6-dihydro-2H-[1,4]oxazin-3-yl)-4-fluoro-phenyl]-amide]: 210 nM.
In the case of `NC1=NC(c2cccc(NC(=O)c3ccc(O)nn3)c2)(C(F)F)COC1` (stereo not drawn) [Example 103, 6-Hydroxy-pyridazine-3-carboxylic acid [3-(5-amino-3-difluoromethyl-3,6-dihydro-2H-[1,4]oxazin-3-yl)-phenyl]-amide hydrochloride], the IC50 is 7800 nM.
Next, `Cc1nc(C(=O)Nc2ccc(F)c([C@]3(C(F)F)COCC(N)=N3)c2)cs1` [Example 148, 2-Methyl-thiazole-4-carboxylic acid [3-((R)-5-amino-3-difluoromethyl-3,6-dihydro-2H-[1,4]oxazin-3-yl)-4-fluoro-phenyl]-amide hydrochloride]: 940 nM; `Cn1ccnc1C(=O)Nc1ccc(F)c([C@]2(C(F)F)COCC(N)=N2)c1` [Example 133, 1-Methyl-1H-imidazole-2 carboxylic acid [3-((R)-5-amino-3 difluoromethyl-3,6-dihydro-2H [1,4]oxazin-3-yl)-4-fluoro-phenyl]-amide hydrochloride]: 1000 nM.
Regarding `Cc1cc(Br)cnc1C(=O)Nc1ccc(F)c([C@]2(CF)COCC(N)=N2)c1` [Example 91, 5-Bromo-3-methyl-pyridine-2-carboxylic acid [3-((R)-5-amino-3-fluoromethyl-3,6-dihydro-2H-[1,4]oxazin-3-yl)-4-fluoro-phenyl]-amide hydrochloride], the IC50 was 15 nM.
The value for `Cc1cnc(C(=O)Nc2cccc(C3(C)COCC(N)=N3)c2)cn1` (stereo not drawn) [Example 6, 5-Methyl-pyrazine-2-carboxylic acid [3-(5-amino-3-methyl-3,6-dihydro-2H-[1,4]oxazin-3-yl)-phenyl]-amide] was 4700 nM; that for `CC1(c2cc(NC(=O)c3ccc(C#N)cn3)ccc2F)COCC(N)=N1` (stereo not drawn) [Example 62, 5-Cyano-pyridine-2-carboxylic acid [3-(5-amino-3-methyl-3,6-dihydro-2H-[1,4]oxazin-3-yl)-4-fluoro-phenyl]-amide hydrochloride] was 95 nM; that for `CC1(c2cccc(NC(=O)c3ncc(Br)cn3)c2)COCC(N)=N1` (stereo not drawn) [Example 7, 5-Bromo-pyrimidine-2-carboxylic acid [3-(5-amino-3-methyl-3,6-dihydro-2H-[1,4]oxazin-3-yl)-phenyl]-amide] was 540 nM.
Next, `NC1=N[C@@](c2cc(NC(=O)c3ccc(Br)cn3)ccc2F)(C(F)F)CCOC1` [Example 97, 5-Bromo-pyridine-2-carboxylic acid[3-((S)-3-amino-5-difluoromethyl-2,5,6,7-tetrahydro-[1,4]oxazepin-5-yl)-4-fluoro-phenyl]-amide hydrochloride]: 18 nM; `COCCOc1ccc(C(=O)Nc2ccc(F)c([C@]3(C(F)F)COCC(N)=N3)c2)nc1` [Example 180, 5-(2-Methoxy-ethoxy)-pyridine-2-carboxylic acid [3-((R)-5-amino-3-difluoromethyl-3,6-dihydro-2H-[1,4]oxazin-3-yl)-4-fluoro-phenyl]-amide]: 340 nM.
